Measurements reported in ChEMBL document CHEMBL1201862, “PubChem BioAssay data set” (2004).
Activity calls are given as the source filed them.

Key:
[1] = molecular target: Beta-lactamase (Salmonella choleraesuis (strain SC-B67), UniProt Q5J463); test: Epi-absorbance-based counterscreen for selective VIM-2 inhibitors: dose response biochemical high throughput screening assay to identify inhibitors of TEM-1 serine-beta-lactamase.
[2] = molecular target: T1, Beta-lactamase (Pseudomonas aeruginosa, UniProt Q79MP6); test: IMP-1 metallo-beta-lactamase inhibitors, dose response, selectivity assay for VIM-2 inhibitor project, biochemical, epi-absorbance (AID 1920)
T1 sequence (Q79MP6 whole entry): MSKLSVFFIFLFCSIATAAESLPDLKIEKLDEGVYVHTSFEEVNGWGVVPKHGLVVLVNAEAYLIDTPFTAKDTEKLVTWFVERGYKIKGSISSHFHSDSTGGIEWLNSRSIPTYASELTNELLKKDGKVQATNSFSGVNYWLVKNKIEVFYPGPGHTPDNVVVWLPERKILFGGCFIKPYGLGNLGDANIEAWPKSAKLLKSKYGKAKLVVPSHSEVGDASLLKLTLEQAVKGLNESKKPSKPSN

[3] = molecular target: T1, Beta-lactamase; test: […] counterscreen for selective VIM-2 inhibitors: dose response biochemical high throughput screening assay to identify inhibitors of IMP-1 metallo-beta-lactamase.
[4] = molecular target: DNA dC->dU-editing enzyme APOBEC-3G (Homo sapiens, UniProt Q9HC16); test: Dose Response confirmation of small molecule APOBEC3G DNA Deaminase Inhibitors via a fluorescence-based single-stranded DNA deaminase assay. [Related pubchem assays (depositor defined):AID493012, AID493028]; type: functional
DNA dC->dU-editing enzyme APOBEC-3G, sequence (Q9HC16 whole entry): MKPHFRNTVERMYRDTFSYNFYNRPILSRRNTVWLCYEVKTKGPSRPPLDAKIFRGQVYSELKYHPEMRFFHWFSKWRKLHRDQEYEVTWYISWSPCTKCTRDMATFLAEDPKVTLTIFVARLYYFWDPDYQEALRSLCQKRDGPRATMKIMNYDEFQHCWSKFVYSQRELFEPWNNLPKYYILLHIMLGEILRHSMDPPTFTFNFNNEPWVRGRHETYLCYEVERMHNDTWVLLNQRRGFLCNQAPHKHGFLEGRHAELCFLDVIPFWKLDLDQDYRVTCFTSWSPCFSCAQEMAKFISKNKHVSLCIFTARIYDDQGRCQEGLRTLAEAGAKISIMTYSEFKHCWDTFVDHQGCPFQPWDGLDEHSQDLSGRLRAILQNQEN

[5] = molecular target: T2, Endoribonuclease toxin MazF (Escherichia coli K-12, UniProt P0AE70); test: MazF toxin RNase activators, dose response, biochemical, fluorescence, single-stranded RNA substrate, uHTS hits (AID 588481); type: functional
T2 sequence (P0AE70 whole entry): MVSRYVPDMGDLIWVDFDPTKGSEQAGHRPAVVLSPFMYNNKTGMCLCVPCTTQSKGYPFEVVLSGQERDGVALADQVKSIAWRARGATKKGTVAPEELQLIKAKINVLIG

[6] = molecular target: T2, Endoribonuclease toxin MazF; test: fluorescent RNA oligo signal without MazF, dose response, counter-screen for MazEF activator project, biochemical, fluorescence, single-stranded RNase substrate (AID 588502); type: functional
[7] = molecular target: Arf-GAP with SH3 domain, ANK repeat and PH domain-containing protein 1 (Homo sapiens, UniProt Q9ULH1); type: functional;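 also: biochemical fluorescence polarization dose–response screen measuring inhibition of ASAP1; ASAP1 GAP domain stimulating GTP hydrolysis by truncated human ARF1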
Arf-GAP with SH3 domain, ANK repeat and PH domain-containing protein 1, sequence (Q9ULH1 whole entry, the tested form may be a part): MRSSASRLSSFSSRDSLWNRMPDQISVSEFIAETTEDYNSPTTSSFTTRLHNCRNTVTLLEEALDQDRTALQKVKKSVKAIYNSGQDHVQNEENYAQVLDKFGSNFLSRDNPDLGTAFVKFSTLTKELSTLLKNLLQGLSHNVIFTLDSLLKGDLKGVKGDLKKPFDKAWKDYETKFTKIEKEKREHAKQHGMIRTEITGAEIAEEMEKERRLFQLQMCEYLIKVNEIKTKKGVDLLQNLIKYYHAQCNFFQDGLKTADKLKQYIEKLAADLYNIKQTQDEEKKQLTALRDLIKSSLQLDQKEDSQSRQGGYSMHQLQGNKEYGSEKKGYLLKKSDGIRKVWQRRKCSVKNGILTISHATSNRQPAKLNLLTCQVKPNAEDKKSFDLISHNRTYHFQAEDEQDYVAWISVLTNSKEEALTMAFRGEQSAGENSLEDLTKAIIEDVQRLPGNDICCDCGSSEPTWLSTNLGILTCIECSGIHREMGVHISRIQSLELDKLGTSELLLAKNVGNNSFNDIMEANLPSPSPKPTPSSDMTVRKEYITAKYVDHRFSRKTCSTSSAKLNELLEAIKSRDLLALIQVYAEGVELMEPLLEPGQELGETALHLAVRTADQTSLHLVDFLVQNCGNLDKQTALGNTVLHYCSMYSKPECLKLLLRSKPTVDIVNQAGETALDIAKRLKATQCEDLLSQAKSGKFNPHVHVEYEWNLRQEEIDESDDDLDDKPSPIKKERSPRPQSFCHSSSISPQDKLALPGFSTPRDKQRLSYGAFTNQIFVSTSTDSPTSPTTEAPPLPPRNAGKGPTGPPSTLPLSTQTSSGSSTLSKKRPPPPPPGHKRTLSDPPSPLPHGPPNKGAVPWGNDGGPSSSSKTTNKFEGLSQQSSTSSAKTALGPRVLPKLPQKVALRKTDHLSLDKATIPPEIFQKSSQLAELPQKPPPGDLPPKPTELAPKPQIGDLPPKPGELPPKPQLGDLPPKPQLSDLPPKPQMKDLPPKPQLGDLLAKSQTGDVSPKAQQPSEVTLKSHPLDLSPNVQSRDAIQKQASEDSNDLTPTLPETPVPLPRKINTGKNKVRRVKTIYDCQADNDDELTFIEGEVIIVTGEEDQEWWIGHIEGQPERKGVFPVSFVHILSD

[8] = molecular target: Adenosylmethionine-8-amino-7-oxononanoate aminotransferase (Mycobacterium tuberculosis, UniProt P9WQ81); test: Mycobacterium tuberculosis BioA enzyme inhibitor Measured in Biochemical System Using Plate Reader - 2163-02_Inhibitor_Dose_CherryPick_Activity.; type: functional, Mycobacterium tuberculosis UT205
Adenosylmethionine-8-amino-7-oxononanoate aminotransferase, sequence (P9WQ81 whole entry): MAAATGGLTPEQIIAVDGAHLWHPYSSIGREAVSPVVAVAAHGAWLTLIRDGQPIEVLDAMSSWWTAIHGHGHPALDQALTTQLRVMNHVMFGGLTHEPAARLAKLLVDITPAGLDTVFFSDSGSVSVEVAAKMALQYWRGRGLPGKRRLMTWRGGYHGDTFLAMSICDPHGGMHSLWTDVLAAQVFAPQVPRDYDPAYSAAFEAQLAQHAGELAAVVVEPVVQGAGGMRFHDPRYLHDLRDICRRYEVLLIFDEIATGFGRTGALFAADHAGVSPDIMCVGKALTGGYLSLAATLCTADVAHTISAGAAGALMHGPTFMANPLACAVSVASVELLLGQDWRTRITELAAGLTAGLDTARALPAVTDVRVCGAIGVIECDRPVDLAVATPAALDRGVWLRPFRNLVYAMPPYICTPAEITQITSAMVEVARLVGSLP

[9] = molecular target: T3, Aryl hydrocarbon receptor (Homo sapiens, UniProt P35869); conditions: Potency;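 also: confirmatory quantitative high-throughput screen measuring activation of the AhR signaling pathway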
T3 sequence (P35869 whole entry): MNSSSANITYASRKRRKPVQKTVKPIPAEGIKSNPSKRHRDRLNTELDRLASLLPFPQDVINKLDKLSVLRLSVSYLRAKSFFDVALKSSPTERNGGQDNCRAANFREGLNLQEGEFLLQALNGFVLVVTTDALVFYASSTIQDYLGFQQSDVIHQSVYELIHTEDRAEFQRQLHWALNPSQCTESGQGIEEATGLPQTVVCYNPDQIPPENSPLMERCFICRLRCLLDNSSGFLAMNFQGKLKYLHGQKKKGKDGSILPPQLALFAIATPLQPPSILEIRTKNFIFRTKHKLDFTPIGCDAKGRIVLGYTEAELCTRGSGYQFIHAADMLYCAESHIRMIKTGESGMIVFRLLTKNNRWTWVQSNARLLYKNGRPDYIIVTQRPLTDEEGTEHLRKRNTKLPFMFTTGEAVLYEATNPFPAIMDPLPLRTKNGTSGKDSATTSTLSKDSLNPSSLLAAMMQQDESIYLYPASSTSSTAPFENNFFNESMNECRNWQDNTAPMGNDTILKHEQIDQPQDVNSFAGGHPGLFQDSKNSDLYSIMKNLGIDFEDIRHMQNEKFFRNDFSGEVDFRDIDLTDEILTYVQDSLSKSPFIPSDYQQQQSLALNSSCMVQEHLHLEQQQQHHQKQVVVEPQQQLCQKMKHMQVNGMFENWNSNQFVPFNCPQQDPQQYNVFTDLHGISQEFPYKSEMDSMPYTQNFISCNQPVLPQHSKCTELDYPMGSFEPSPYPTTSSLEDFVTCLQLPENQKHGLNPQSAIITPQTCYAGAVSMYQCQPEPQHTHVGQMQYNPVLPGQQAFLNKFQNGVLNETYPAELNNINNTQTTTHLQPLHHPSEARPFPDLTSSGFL

[10] = molecular target: Mitogen-activated protein kinase 9 (Homo sapiens, UniProt P45984); type: functional;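 also: value from a kinome panel profiling assay, MAPK9 panel entry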
Mitogen-activated protein kinase 9, sequence (P45984 whole entry): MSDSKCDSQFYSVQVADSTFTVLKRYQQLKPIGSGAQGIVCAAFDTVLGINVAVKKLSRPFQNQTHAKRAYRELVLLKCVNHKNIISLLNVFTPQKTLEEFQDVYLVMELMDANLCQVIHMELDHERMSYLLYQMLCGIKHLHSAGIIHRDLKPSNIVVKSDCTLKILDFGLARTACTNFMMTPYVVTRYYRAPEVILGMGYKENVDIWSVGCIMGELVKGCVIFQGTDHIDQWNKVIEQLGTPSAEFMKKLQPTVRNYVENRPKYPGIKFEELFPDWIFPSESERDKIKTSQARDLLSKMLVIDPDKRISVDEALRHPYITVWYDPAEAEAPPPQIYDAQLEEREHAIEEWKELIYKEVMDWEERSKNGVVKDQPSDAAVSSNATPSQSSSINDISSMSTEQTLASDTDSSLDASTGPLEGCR

[11] = molecular target: Dual specificity protein kinase CLK2 (Homo sapiens, UniProt P49760); type: functional
Dual specificity protein kinase CLK2, sequence (P49760 whole entry): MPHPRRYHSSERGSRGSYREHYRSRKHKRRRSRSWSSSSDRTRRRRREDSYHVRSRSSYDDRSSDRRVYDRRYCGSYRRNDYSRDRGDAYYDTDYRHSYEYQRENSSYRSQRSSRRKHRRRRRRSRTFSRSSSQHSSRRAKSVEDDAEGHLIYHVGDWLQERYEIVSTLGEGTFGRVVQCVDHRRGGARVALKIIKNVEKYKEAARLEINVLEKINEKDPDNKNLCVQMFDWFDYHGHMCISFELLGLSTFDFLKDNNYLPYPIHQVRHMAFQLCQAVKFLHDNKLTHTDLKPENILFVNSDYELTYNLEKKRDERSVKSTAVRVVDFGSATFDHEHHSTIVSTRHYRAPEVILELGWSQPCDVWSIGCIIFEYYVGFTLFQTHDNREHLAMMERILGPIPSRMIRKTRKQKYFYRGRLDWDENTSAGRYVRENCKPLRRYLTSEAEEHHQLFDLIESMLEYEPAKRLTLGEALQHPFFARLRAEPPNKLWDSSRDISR

[12] = molecular target: Dual specificity protein kinase CLK4 (Homo sapiens, UniProt Q9HAZ1); type: functional
Dual specificity protein kinase CLK4, sequence (Q9HAZ1 whole entry): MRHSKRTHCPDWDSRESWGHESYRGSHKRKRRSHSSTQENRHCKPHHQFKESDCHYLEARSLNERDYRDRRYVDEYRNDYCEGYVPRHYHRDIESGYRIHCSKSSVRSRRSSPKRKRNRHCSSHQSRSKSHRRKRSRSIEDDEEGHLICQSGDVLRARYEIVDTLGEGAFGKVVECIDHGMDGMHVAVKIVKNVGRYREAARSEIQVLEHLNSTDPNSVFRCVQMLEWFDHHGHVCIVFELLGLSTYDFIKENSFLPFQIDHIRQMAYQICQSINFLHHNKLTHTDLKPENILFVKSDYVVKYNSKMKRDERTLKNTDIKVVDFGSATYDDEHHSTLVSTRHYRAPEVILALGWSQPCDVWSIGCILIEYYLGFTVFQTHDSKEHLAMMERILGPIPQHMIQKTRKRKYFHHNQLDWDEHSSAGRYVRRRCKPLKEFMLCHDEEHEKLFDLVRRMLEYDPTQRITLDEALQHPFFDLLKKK

[13] = molecular target: Dual specificity tyrosine-phosphorylation-regulated kinase 1A (Homo sapiens, UniProt Q13627); type: functional;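 also: measured against DYRK1A as one member of a broad kinome profiling panel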
[14] = molecular target: Hepatocyte nuclear factor 4-alpha (Homo sapiens, UniProt P41235); type: functional, cell-based;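 also: biochemical luminescence-based dose-response counterscreen measuring inhibition of HNF4 dimerization, run alongside a screen for blockers of ABHD5–perilipin-5 interaction; split luciferase complementation of HNF4 fusion proteins in cell lysate measuring dimerization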
Hepatocyte nuclear factor 4-alpha, sequence (P41235 whole entry, the tested form may be a part): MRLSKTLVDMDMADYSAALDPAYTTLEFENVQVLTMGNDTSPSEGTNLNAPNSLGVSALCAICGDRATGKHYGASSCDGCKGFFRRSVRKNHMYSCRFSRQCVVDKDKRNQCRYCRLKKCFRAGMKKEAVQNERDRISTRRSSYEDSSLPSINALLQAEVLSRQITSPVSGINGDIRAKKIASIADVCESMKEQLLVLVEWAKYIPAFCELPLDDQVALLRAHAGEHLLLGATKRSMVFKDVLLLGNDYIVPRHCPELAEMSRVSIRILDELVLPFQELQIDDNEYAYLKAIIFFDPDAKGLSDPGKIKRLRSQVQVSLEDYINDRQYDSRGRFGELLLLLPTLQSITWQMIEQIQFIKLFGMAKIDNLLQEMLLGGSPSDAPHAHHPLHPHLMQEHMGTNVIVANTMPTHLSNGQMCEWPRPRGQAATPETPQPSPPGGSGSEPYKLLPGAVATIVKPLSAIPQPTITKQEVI

[15] = tested on: Streptococcus sp. 'group A'; test: growth inhibition of control SK(-) GAS strain, dose response, counter-screen for streptokinase expression inhibitor project, luminescence, kanamycin, BacTiterGlo, confirmation (AID 1900); type: functional, organism-based
[16] = molecular target: T4, Streptokinase A (Streptococcus pyogenes serotype M1, UniProt P10520); test: S. pyogenes streptokinase expression inhibitors, potency, dose response, plasminogen activation absorbance, OD405 (AID 1914); type: functional, Streptococcus pyogenes M1 GAS;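 also: secreted streptokinase activity via plasminogen activation per viability signal from cell pellet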
T4 sequence (P10520 whole entry): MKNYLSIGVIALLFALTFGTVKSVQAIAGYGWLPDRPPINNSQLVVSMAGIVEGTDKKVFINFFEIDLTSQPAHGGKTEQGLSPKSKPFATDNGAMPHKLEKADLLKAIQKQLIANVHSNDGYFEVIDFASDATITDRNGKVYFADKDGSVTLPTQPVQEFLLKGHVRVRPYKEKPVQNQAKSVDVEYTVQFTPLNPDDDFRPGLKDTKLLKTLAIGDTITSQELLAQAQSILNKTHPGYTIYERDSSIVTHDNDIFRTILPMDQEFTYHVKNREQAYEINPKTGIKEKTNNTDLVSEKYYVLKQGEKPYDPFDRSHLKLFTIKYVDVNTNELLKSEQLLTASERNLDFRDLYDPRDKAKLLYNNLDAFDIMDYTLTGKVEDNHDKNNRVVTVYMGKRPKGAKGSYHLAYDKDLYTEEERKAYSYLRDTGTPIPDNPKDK

[17] = inhibitors of intracellular T. cruzi replication, confirmation, NIH3T3 host cells, beta-gal luminescence (AID 2044); type: functional, cell-based;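 also: intracellular parasites grown in NIH/3T3 mouse fibroblasts as host cells; luminescent beta-galactosidase reporter signal from transgenic T. cruzi replicating inside host cells; inhibitors lower the luminescence signal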
[18] = cytotoxicity toward NIH3T3 fibroblasts, dose response, counter-screen, cell-based, ATP luminescence, mouse fibroblasts (AID 2010); type: functional;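 also: cells exposed to compound for about 90 hours before reading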
[19] = tested on: Streptococcus; test: Group A Streptococcus viability loss, dose response, counter-screen for streptokinase expression inhibitor project, luminescence, BacTiterGlo (AID 1915); type: functional, organism-based;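 also: potency for reduction of bacterial viability or growth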
[20] = cells; type: functional
[21] = tested on: HEK293; test: cells; type: functional, cell-based; conditions: Homo sapiens
[22] = molecular target: T5, Nuclear receptor subfamily 0 group B member 1 (Homo sapiens, UniProt P51843); test: Luminescence-based cell-based high throughput dose response assay for inhibitors of the orphan nuclear receptor subfamily 0, group B, member 1 (DAX1; NR0B1). [Related pubchem assays (depositor defined):AID504766, AID504790]; type: functional
T5 sequence (P51843 whole entry): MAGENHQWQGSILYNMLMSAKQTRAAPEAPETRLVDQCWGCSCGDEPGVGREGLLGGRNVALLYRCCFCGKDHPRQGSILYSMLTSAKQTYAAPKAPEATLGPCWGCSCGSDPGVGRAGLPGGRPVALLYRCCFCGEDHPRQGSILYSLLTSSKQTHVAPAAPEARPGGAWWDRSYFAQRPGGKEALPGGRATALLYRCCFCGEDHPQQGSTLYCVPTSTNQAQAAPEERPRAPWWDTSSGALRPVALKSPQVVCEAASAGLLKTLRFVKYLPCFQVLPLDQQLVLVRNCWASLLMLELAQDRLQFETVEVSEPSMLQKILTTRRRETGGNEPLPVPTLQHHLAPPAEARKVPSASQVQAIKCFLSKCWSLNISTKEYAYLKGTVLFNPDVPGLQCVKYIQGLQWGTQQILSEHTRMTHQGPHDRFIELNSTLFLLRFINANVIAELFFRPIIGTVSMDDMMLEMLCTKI

Beta-lactamase (Salmonella choleraesuis (strain SC-B67), UniProt Q5J463), sequence (Q5J463 whole entry): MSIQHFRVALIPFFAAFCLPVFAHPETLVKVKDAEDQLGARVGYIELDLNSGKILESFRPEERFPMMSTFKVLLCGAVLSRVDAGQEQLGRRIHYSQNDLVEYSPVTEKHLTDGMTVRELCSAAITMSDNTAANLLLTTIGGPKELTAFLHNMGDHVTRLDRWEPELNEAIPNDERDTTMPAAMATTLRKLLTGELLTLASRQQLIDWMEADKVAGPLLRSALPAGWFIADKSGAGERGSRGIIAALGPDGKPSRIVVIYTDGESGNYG

CCCCn1c(S)nnc1-c1nn(C)c(C)c1Cl
IC50 [1]: > 59.6 µM (inactive) | IC50 [2]: > 59.6 µM (inactive) | IC50 [3]: > 59.6 µM (inactive) | IC50 [4]: 12.5 µM (active)

Cc1ccc(NC(=O)c2ccc(NCc3ccco3)c([N+](=O)[O-])c2)cc1Cl
EC50 [5]: > 99 µM (inactive) | EC50 [6]: > 99 µM (inactive) | IC50 [7]: 33.6 µM (inactive)

O=C(COc1ccc2ccc(=O)oc2c1)N1CCN(c2ccc(F)cc2)CC1
AC50 [8]: 1 µM (active)

COc1cc(Cl)c(OC)cc1N
AC50 [9]: 56.2 µM (inconclusive)

CC(C)(C)c1cc(NC(=O)c2cc3ccccc3s2)n(-c2ccc(OCC(=O)O)cc2)n1
Ki [10]: 3.98 µM (active)

O=c1[nH]c2ccc(Br)cc2n1-c1cc(Cl)c(O)cc1O
Ki [11]: 6.31 µM (active) | Ki [12]: 3.16 µM (active) | Ki [13]: 5.01 µM (active)

COc1ccc(NC(=O)C(c2cccc3ccccc23)n2c(=O)c(-c3ccco3)nc3ccccc32)cc1 (stereo not drawn)
IC50 [14]: 25.5 µM (inactive)

COc1ccc(NC(=O)C(c2ccccc2)n2c(=O)c(-c3ccco3)nc3ccccc32)cc1 (stereo not drawn)
IC50 [14]: 12.8 µM (inactive)

Cc1ccc(N/N=C2\CS(=O)(=O)N(C)c3ccsc32)cc1
EC50 [15]: 1.25 µM (active) | EC50 [16]: 4.04 µM (active) | EC50 [17]: 2.21 µM (active) | EC50 [18]: > 60 µM (not active) | EC50 [19]: 11.3 µM (active) | IC50 [20]: 21.2 µM (active) | IC50 [21]: > 67.5 µM (inactive) | IC50 [22]: > 67.5 µM (inactive)
